From patent US7288541B2, “Propylcarbamate derivatives as inhibitors of serine and cysteine proteases” (SmithKline Beecham Corporation, priority 2001, dated 2007)
Where two headings read alike, the source gives them in different places.

How the values were obtained:
Format in all cases: biochemical
human cathepsin K = molecular target: T1, human cathepsin K (Homo sapiens, UniProt P43235); assay: Cathepsin K inhibition, fluorogenic substrate Cbz-Phe-Arg-AMC, progress curve method; settings: recombinant human enzyme, 10 μM substrate, read-out: hCat K IC50
T1 construct: The proform of cathepsin K was converted to mature cathepsin K by brief exposure to pH 4; made in house; host or cells: baculovirus; Trichoplusia ni High Five cells (virus raised in Sf-9)
T1 sequence (P43235 115-329): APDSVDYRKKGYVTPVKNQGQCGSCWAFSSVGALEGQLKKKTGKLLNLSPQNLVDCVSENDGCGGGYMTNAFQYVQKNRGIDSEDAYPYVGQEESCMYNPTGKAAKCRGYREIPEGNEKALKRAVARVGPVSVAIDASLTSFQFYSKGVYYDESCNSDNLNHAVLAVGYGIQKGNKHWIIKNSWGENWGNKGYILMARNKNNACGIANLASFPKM
Method: All assays for cathepsin K were carried out with human and rat recombinant enzyme. Assays for cathepsins S & V were also carried out with human recombinant enzyme. Assays for human cathepsins B, H, and L were carried out with enzyme prepared from human liver tissue. […] A stock substrate solution of Cbz-Phe-Arg-AMC was prepared at a concentration of 50 mM in dimethyl sulfoxide. This substrate was diluted into the assay for a final substrate concentration of 10 μM in the rat cathepsin K, human cathepsin K, and human cathepsin B assays; a final substrate concentration of 5 μM in the human cathepsin L assay; and a final substrate concentration of 2 μM in the human cathepsin V assay.
All assays contained 10% dimethyl sulfoxide. […] All assays were conducted at 30° C. Product fluorescence (excitation at 360 nm; emission at 440 nm, (except cathepsin H which used excitation at 340 nm; emission at 420 nm)) was monitored with a PerSeptive Biosystems Cytofluor II fluorescence plate reader. Product progress curves were generated over 2.3 h monitoring the formation of 7-amino-4-methylcoumarin product (or β-naphthalamide for cathepsin H).
Human and Rat Cathepsin K:
The cells continued to grow for 72 h post-infection, before the virus was harvested by centrifugation at 1400×g for 30 min.
One and one-half liters of Trichoplusia ni (T. ni) High Five (TM) cells [JRH Biosciences, Woodland, Calif. […] The cells were grown for 24 h at 28° C., 50 RPM, and 50% dissolved oxygen. […] Media were separated from cells at a rate of 1 L/min using the Centritech 100 (TM) continuous-flow centrifuge (DuPont) operating at 200×g.
Protein Purification: Media (human and rat) were filtered through a Whatman 3 filter, and then loaded onto a 25 mL Poros HS II (26 mm×47 mm) cation exchange column equilibrated in 25 mM sodium acetate at pH 5.5 (equilibration buffer). The column was washed until the absorbance reached the baseline value, and then the protein was eluted with a linear gradient from 0–2 M sodium chloride in the equilibration buffer. Column fractions were analyzed by SDS-PAGE, N-terminal sequencing, and mass spectrometry. Fractions containing the proform of cathepsin K were pooled and frozen at −80° C. The proform was concentrated in an Amicon Centriprep 10 and fractionated with a Superdex 75 column (26 mm×600 mm, Pharmacia) equilibrated in 400 mM sodium chloride, 25 mM sodium acetate at pH 5.5.
Cathepsin K Activation: The proform of cathepsin K was converted to mature cathepsin K by brief exposure to pH 4 in the presence of 5 mM L-cysteine. Typically, 5 mM L-cysteine was added to 10 mL of approximately 1 mg/mL procathepsin K. One mL of this solution was diluted ten-fold into 450 mM sodium acetate at pH 4.0 containing 5 mM L-cysteine. This solution was reacted at 23° C. for 2 min before neutralization with 2 mL 1.8 M sodium acetate at pH 6.0. The neutralized sample was added to the remaining 9 mL of procathepsin K. The mixture was incubated at 4° C. for 2–3 days. The activated cathepsin K was chromatographed on a Poros HS II column as described above.
Potential inhibitors were evaluated using the progress curve method. Assays were carried out in the presence of variable concentrations of test compound. Reactions were initiated by addition of buffered solutions of inhibitor and substrate to enzyme. Data analysis was conducted according to one of two procedures depending on the appearance of the progress curves in the presence of inhibitors. […] Ki values were calculated from IC50 values using equation 2 assuming a competitive model.

human cathepsin B = molecular target: T2, human cathepsin B (Homo sapiens, UniProt P07858); assay: Cathepsin B inhibition, fluorogenic substrate Cbz-Phe-Arg-AMC, progress curve method; settings: Table 2, Inhibition of Cathepsins (Ki in nM); enzyme from human liver tissue, 10 μM substrate, pH 5.5; read-out: hCat B IC50
T2 construct: enzyme prepared from human liver tissue; from tissue; host or cells: human liver
Method: (§1) All assays for cathepsin K were carried out with human and rat recombinant enzyme. Assays for cathepsins S & V were also carried out with human recombinant enzyme. Assays for human cathepsins B, H, and L were carried out with enzyme prepared from human liver tissue. Standard assay conditions for the determination of kinetic constants used a fluorogenic peptide substrate, typically (5S,8S)-13-amino-5-benzyl-13-imino-3-methylene-N-(4-methyl-2-oxo-2H-chromen-7-yl)-6-oxo-1-phenyl-2-oxa-4,7,12-triazatridecane-8-carboxamide (Cbz-Phe-Arg-AMC), and were determined in 100 mM sodium acetate at pH 5.5 containing 10 mM dithiothreitol and 120 mM sodium chloride. […]
(§2) All assays contained 10% dimethyl sulfoxide. […] Product fluorescence (excitation at 360 nm; emission at 440 nm, (except cathepsin H which used excitation at 340 nm; emission at 420 nm)) was monitored with a PerSeptive Biosystems Cytofluor II fluorescence plate reader. […]
(§3) Potential inhibitors were evaluated using the progress curve method. […] For those compounds whose progress curves were linear, the enzymatic activity (RATE) was plotted against the concentration of test compound, including inhibitor concentration of zero ([I]=0), and the IC50 determined from a fit of equation 1 to the data, RATE=Vmax/(1+([I]/IC50)) (1) where Vmax is the best fit estimate of the maximal enzymatic activity. […]

human cathepsin L = molecular target: T3, human cathepsin L (Homo sapiens, UniProt P07711); assay: Cathepsin L inhibition, fluorogenic substrate Cbz-Phe-Arg-AMC, progress curve method; settings: Table 2, Inhibition of Cathepsins (Ki in nM); enzyme from human liver tissue, 5 μM substrate, pH 5.5; read-out: hCat L IC50
T3 construct: enzyme prepared from human liver tissue; from tissue; host or cells: human liver
Method: as §1, §2, §3

human cathepsin S = human cathepsin S (Homo sapiens, UniProt P25774); assay: Cathepsin S inhibition, fluorogenic substrate Cbz-Val-Val-Arg-AMC, progress curve method; settings: Table 2, Inhibition of Cathepsins (Ki in nM); recombinant human enzyme, 10 μM substrate, pH 5.5; read-out: hCat S IC50
Method: as §1, §2, §3

human cathepsin V = human cathepsin V (Homo sapiens, UniProt O60911); assay: Cathepsin V inhibition, fluorogenic substrate Cbz-Phe-Arg-AMC, progress curve method; settings: Table 2, Inhibition of Cathepsins (Ki in nM); recombinant human enzyme, 2 μM substrate, pH 5.5; read-out: hCat V IC50
Method: as §1, §2, §3

[1] = Table 1, Inhibition of Cathepsin K (Ki in nM), pH 5.5, 30° C.
[2] = Table 2, Inhibition of Cathepsins (Ki in nM), pH 5.5

T3 sequence (P07711 114-288 limits assumed): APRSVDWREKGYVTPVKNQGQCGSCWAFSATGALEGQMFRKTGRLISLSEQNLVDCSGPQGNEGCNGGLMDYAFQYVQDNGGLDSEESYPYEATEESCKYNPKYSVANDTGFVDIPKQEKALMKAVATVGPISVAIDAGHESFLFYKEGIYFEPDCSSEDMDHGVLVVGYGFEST
T3 sequence (P07711 292-333 limits assumed): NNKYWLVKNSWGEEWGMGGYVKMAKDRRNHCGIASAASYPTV
human cathepsin V, sequence (O60911 114-334): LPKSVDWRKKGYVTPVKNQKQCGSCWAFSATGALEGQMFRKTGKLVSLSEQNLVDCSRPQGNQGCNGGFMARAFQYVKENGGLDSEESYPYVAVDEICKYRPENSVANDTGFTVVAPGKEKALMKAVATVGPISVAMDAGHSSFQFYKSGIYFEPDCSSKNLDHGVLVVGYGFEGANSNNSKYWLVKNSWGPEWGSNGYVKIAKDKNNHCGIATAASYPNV
human cathepsin S, sequence (P25774 115-331): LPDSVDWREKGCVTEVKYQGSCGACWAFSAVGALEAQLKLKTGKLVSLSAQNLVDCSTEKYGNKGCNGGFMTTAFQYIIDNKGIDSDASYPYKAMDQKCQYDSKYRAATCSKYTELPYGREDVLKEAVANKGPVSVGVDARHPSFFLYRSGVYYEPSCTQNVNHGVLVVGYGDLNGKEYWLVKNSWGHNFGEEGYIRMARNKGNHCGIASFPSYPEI

IC50 (human cathepsin K; [1])	IC50 (human cathepsin K; [2])	IC50 (human cathepsin B)	IC50 (human cathepsin L)	IC50 (human cathepsin S)	IC50 (human cathepsin V)	SMILES
100 to 1000 nM	100 to 1000 nM	1000 to 10000 nM	1000 to 10000 nM	10 to 100 nM	100 to 1000 nM	CCCC[C@H](NC(=O)O[C@@H]1CN(c2nc3ccccc3s2)CC1(C)C)C(=O)CNS(=O)(=O)c1ccccn1 [Example 6, (3S)-1-(1,3-benzothiazol-2-yl)-4,4-dimethylpyrrolidinyl (1S)-1-{[(2-pyridinylsulfonyl)amino]acetyl}pentylcarbamate]
< 10 nM	< 10 nM	10 to 100 nM	10 to 100 nM	< 10 nM	< 10 nM	C[C@H](NC(=O)O[C@H](Cn1cnc2cc(Cl)c(Cl)cc21)C(C)(C)C)C(=O)CNS(=O)(=O)c1ccccn1 [Example 16, (1S)-1-[(5,6-dichloro-1H-benzimidazol-1-yl)methyl]-2,2-dimethylpropyl (1S)-1-methyl-2-oxo-3-[(2-pyridinylsulfonyl)amino]propylcarbamate]
